Measured values from ChEMBL document CHEMBL1201862, “PubChem BioAssay data set” (2004).
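Step 1: Grow cells in 96-well plates. Step 2: Expose to compound for 48 hours at 5 concentrations. Step 3: Interpolate endpoints linearly; if unreached, use highest concentration. GI50 = concentration required for 50% inhibition of growth.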 The source made the active and inactive calls. No stated cut-off is given here; in the data, active = GI50 up to about 1.1 µM and inactive = higher.

Assays:
Experiment in all cases: DTP human tumour cell line panel, 48 h
[1] = system: 786-0
[2] = system: A498
[3] = system: A549
[4] = system: ACHN
[5] = system: BT-549
[6] = system: CAKI-1
[7] = system: COLO 205
[8] = system: DU-145
[9] = system: EKVX
[10] = system: HCT-116
[11] = system: HCT-15
[12] = system: HL-60
[13] = system: HOP-62
[14] = system: HOP-92
[15] = system: HT-29
[16] = system: Hs-578T
[17] = system: IGROV-1
[18] = system: K562
[19] = system: KM12
[20] = system: LOX IMVI
[21] = system: M14
[22] = system: MCF7
[23] = system: MDA-MB-231
[24] = system: MDA-MB-435
[25] = system: MDA-N
[26] = system: MOLT-4
[27] = system: Malme-3M
[28] = system: NCI-H226
[29] = system: NCI-H23
[30] = system: NCI-H522
[31] = system: NCI/ADR-RES
[32] = system: OVCAR-3
[33] = system: OVCAR-4
[34] = system: OVCAR-5
[35] = system: OVCAR-8
[36] = system: PC-3
[37] = system: RPMI-8226
[38] = system: RXF 393
[39] = system: SF-268
[40] = system: SF-295
[41] = system: SK-MEL-28
[42] = system: SK-MEL-2
[43] = system: SK-MEL-5
[44] = system: SK-OV-3
[45] = system: SN12C
[46] = system: SNB-19
[47] = system: SR
[48] = system: SW-620
[49] = system: T47D
[50] = system: TK-10
[51] = system: U-251
[52] = system: UACC-257
[53] = system: UACC-62
[54] = system: UO-31
[55] = system: CCRF-CEM
[56] = system: NCI-H460
[57] = system: SF-539
[58] = system: SNB-75

## CC(C)(C)OCC1NC(=O)[C@@H]2Cc3c([nH]c4ccccc34)C(C3CCCCC3)N2C1=O (some centres not stated)
[1]
  GI50: 22.5 µM (inactive)
[2]
  GI50: 32.2 µM (inactive)
[3]
  GI50: 33.7 µM (inactive)
[4]
  GI50: 27 µM (inactive)
[5]
  GI50: 20.9 µM (inactive)
[6]
  GI50: 17.7 µM (inactive)
[7]
  GI50: 20.7 µM (inactive)
[8]
  GI50: 34.8 µM (inactive)
[9]
  GI50: 27.2 µM (inactive)
[10]
  GI50: 15.3 µM (inactive)
[11]
  GI50: 24 µM
[12]
  GI50: 23 µM (inactive)
[13]
  GI50: 16.1 µM (inactive)
[14]
  GI50: 22.1 µM (inactive)
[15]
  GI50: 18 µM (inactive)
[16]
  GI50: 20.8 µM (inactive)
[17]
  GI50: 23.2 µM (inactive)
[18]
  GI50: 27.3 µM (inactive)
[19]
  GI50: 17.8 µM (inactive)
[20]
  GI50: 16.9 µM (inactive)
[21]
  GI50: 19.3 µM (inactive)
[22]
  GI50: 31.6 µM (inactive)
[23]
  GI50: 17.4 µM (inactive)
[24]
  GI50: 16 µM (inactive)
[25]
  GI50: 16.7 µM (inactive)
[26]
  GI50: 16.5 µM (inactive)
[27]
  GI50: 21.1 µM (inactive)
[28]
  GI50: 22 µM (inactive)
[29]
  GI50: 21.8 µM (inactive)
[30]
  GI50: 16.5 µM (inactive)
[31]
  GI50: 21.1 µM (inactive)
[32]
  GI50: 11.6 µM (inactive)
[33]
  GI50: 23.9 µM (inactive)
[34]
  GI50: 24.2 µM (inactive)
[35]
  GI50: 29.9 µM (inactive)
[36]
  GI50: 18.8 µM (inactive)
[37]
  GI50: 19.8 µM (inactive)
[38]
  GI50: 15.6 µM (inactive)
[39]
  GI50: 28.8 µM (inactive)
[40]
  GI50: 18.2 µM (inactive)
[41]
  GI50: 22.6 µM (inactive)
[42]
  GI50: 20.7 µM (inactive)
[43]
  GI50: 15.2 µM (inactive)
[44]
  GI50: 51.4 µM (inactive)
[45]
  GI50: 19.6 µM (inactive)
[46]
  GI50: 37.3 µM (inactive)
[47]
  GI50: 16.2 µM (inactive)
[48]
  GI50: 25.3 µM (inactive)
[49]
  GI50: 20.6 µM (inactive)
[50]
  GI50: 24.3 µM (inactive)
[51]
  GI50: 20.4 µM (inactive)
[52]
  GI50: 18.4 µM (inactive)
[53]
  GI50: 14.9 µM (inactive)
[54]
  GI50: 32.9 µM (inactive)

## O=C(NC(=S)Nc1ccc(Br)cc1)c1ccc2c(c1)Sc1ccccc1O2
[1]
  GI50: 51.5 µM (inactive)
[2]
  GI50: 27.4 µM (inactive)
[3]
  GI50: > 100 µM (inactive)
[4]
  GI50: 60.1 µM (inactive)
[5]
  GI50: > 100 µM (inactive)
[55]
  GI50: > 100 µM (inactive)
[7]
  GI50: > 100 µM (inactive)
[8]
  GI50: > 100 µM (inactive)
[10]
  GI50: > 100 µM (inactive)
[11]
  GI50: > 100 µM
[12]
  GI50: > 100 µM (inactive)
[13]
  GI50: 79.8 µM (inactive)
[14]
  GI50: 22.5 µM (inactive)
[15]
  GI50: > 100 µM (inactive)
[16]
  GI50: 45.7 µM (inactive)
[17]
  GI50: 49.3 µM (inactive)
[18]
  GI50: > 100 µM (inactive)
[19]
  GI50: > 100 µM (inactive)
[20]
  GI50: > 100 µM (inactive)
[21]
  GI50: > 100 µM (inactive)
[22]
  GI50: > 100 µM (inactive)
[23]
  GI50: 58.6 µM (inactive)
[24]
  GI50: > 100 µM (inactive)
[25]
  GI50: > 100 µM (inactive)
[26]
  GI50: > 100 µM (inactive)
[27]
  GI50: > 100 µM (inactive)
[28]
  GI50: > 100 µM (inactive)
[29]
  GI50: > 100 µM (inactive)
[56]
  GI50: > 100 µM (inactive)
[30]
  GI50: > 100 µM (inactive)
[31]
  GI50: > 100 µM (inactive)
[32]
  GI50: > 100 µM (inactive)
[34]
  GI50: > 100 µM (inactive)
[35]
  GI50: 50.1 µM (inactive)
[36]
  GI50: > 100 µM (inactive)
[39]
  GI50: 48.3 µM (inactive)
[40]
  GI50: 54.5 µM (inactive)
[57]
  GI50: > 100 µM (inactive)
[41]
  GI50: > 100 µM (inactive)
[42]
  GI50: > 100 µM (inactive)
[43]
  GI50: > 100 µM (inactive)
[44]
  GI50: 40.2 µM (inactive)
[45]
  GI50: 95.7 µM (inactive)
[46]
  GI50: 39.3 µM (inactive)
[58]
  GI50: 3.04 µM (inactive)
[47]
  GI50: 36.6 µM (inactive)
[48]
  GI50: > 100 µM (inactive)
[49]
  GI50: 63.7 µM (inactive)
[50]
  GI50: 29.4 µM (inactive)
[51]
  GI50: 37 µM (inactive)
[52]
  GI50: > 100 µM (inactive)
[53]
  GI50: 68.2 µM (inactive)
[54]
  GI50: 31.1 µM (inactive)
